Results taken from patent publication US10709709B2, “Substituted carbonucleoside derivatives useful as anticancer agents” (Pfizer Inc., priority 2016, dated 2020).
Where a name gives a salt, the structure may show the parent alone.

Assays:
[1] = test system: A549 lung adenocarcinoma cells; assay: A549 proliferation assay (Cell Titer Glo); type: cell-based; conditions: 7 days with compound, cell viability by Cell Titer Glo (ATP)
Procedure, shortened: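 A549 cells plated overnight, then treated with nine-point 3.3-fold dilutions (final top 10 μM, 0.2% DMSO) for 7 days at 37 °C, with media and compound refreshed on day 4. Viability measured as ATP by Cell Titer Glo luminescence; IC50 from 4-parameter fit normalized to DMSO control.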

[2] = molecular target: PRMT5/MEP50 protein complex (Homo sapiens (Human), UniProt O14744); assay: PRMT5 biochemical assay (3H-SAM methylation of H4(1-21) peptide, filter plate scintillation); conditions: 10 nM PRMT5/MEP50 complex, 200 nM H4(1-21) peptide, 1 uM SAM, 25 minute incubation at room temperature
Procedure, shortened: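 Human PRMT5/MEP50 complex (10 nM) methylating H4(1-21) peptide (200 nM) with 3H/unlabelled SAM (1 uM final) in pH 8.5 Tris buffer, 25 min at room temperature. Stopped with TCA, 3H-peptide captured on filter plates and scintillation-counted. IC50 from 4-parameter fit.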

PRMT5/MEP50 protein complex, sequence (O14744 other isoform, or with tags, fused parts or gaps): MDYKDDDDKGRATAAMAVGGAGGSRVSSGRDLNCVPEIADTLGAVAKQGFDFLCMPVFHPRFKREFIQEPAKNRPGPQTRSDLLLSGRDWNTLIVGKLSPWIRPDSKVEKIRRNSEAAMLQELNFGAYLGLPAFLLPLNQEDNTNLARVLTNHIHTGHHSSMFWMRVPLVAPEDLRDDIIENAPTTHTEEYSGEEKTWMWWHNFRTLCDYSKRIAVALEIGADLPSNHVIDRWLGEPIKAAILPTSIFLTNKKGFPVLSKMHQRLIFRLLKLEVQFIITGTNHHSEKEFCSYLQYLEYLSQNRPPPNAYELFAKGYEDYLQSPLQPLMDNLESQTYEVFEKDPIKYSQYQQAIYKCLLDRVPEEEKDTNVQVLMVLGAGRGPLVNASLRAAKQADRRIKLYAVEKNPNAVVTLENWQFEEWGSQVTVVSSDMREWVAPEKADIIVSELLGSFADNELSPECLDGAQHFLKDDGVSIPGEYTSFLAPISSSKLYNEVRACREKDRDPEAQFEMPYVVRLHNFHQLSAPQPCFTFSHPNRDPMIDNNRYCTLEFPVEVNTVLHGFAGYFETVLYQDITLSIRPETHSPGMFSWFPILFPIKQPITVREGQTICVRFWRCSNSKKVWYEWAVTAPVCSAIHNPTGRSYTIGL
PRMT5/MEP50 protein complex, sequence (Q9BQA1 whole entry partner): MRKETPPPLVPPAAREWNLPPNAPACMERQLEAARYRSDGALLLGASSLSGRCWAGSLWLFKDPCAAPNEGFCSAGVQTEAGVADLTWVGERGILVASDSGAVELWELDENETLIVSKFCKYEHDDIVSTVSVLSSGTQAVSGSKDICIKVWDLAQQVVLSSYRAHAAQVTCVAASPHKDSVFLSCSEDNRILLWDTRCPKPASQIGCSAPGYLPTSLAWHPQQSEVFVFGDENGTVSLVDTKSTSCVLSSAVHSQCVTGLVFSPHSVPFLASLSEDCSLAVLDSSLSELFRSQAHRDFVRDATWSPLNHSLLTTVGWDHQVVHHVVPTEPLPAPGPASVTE

Cc1cc2cccc(O[C@H]3C[C@@H](n4ccc5c(C)ncnc54)[C@H](O)[C@@H]3O)c2cn1 [Example 169, (1S,2S,3R,5S)-3-(4-methyl-7H-pyrrolo[2,3-d]pyrimidin-7-yl)-5-((3-methylisoquinolin-8-yl)oxy)cyclopentane-1,2-diol]
IC50 ([1]; Homo sapiens, A549, 168 h): 0.743 µM | IC50 [2]: 0.037 µM

Cc1ncnc2c1c(F)cn2[C@@H]1C[C@H](Oc2cc(F)c(F)c3c2CNCC3)[C@@H](O)[C@H]1O [Example 177, (1S,2S,3S,5R)-3-((5,6-difluoro-1,2,3,4-tetrahydroisoquinolin-8-yl)oxy)-5-(5-fluoro-4-methyl-7H-pyrrolo[2,3-d]pyrimidin-7-yl)cyclopentane-1,2-diol]
IC50 ([1]; Homo sapiens, A549, 168 h): 2.37 µM | IC50 [2]: 0.004 µM

Cc1ncnc2c1ccn2[C@@H]1C[C@H](Oc2ccc(F)c3c2CNCC3C)[C@@H](O)[C@H]1O (single isomer, unassigned) [Example 182, hydrochloride]
IC50 ([1]; hydrochloride): 2.18 µM | IC50 [2]: 0.002 µM

Cc1ncnc2c1ccn2[C@@H]1C[C@H](Oc2nc(C(F)F)cc3c2CNCC3)[C@@H](O)[C@H]1O [Example 194, (1S,2S,3S,5R)-3-((3-(difluoromethyl)-5,6,7,8-tetrahydro-2,7-naphthyridin-1-yl)oxy)-5-(4-methyl-7H-pyrrolo[2,3-d]pyrimidin-7-yl)cyclopentane-1,2-diol]
IC50 ([1]; Homo sapiens, A549, 168 h): 0.111 µM | IC50 [2]: 0.001 µM

Nc1ncnc2c1c(Br)cn2[C@@H]1C[C@H](Oc2cc(F)c(F)c3c2CNCC3)[C@@H](O)[C@H]1O [Example 125, (1S,2S,3R,5S)-3-(4-amino-5-bromo-7H-pyrrolo[2,3-d]pyrimidin-7-yl)-5-((5,6-difluoro-1,2,3,4-tetrahydroisoquinolin-8-yl)oxy)cyclopentane-1,2-diol]
IC50 ([1]; Homo sapiens, A549, 168 h): 0.637 µM | IC50 [2]: 0.001 µM

Cc1ncnc2c1ccn2[C@@H]1C[C@H](Oc2ccc(I)c3c2CNCC3)[C@@H](O)[C@H]1O [Example 98, (1S,2S,3S,5R)-3-((5-iodo-1,2,3,4-tetrahydroisoquinolin-8-yl)oxy)-5-(4-methyl-7H-pyrrolo[2,3-d]pyrimidin-7-yl)cyclopentane-1,2-diol]
IC50 ([1]; Homo sapiens, A549, 168 h): 1.49 µM | IC50 [2]: 0.011 µM

Cc1ncnc2c1ccn2[C@@H]1C[C@H](Oc2cc(F)c(F)c3c2CNCC3)[C@@H](O)[C@H]1O [Example 92, (1S,2S,3S,5R)-3-((5,6-difluoro-1,2,3,4-tetrahydroisoquinolin-8-yl)oxy)-5-(4-methyl-7H-pyrrolo[2,3-d]pyrimidin-7-yl)cyclopentane-1,2-diol]
IC50 ([1]; Homo sapiens, A549, 168 h): 0.312 µM | IC50 [2]: 0.001 µM

Cc1ncnc2c1ccn2[C@@H]1C[C@H]([C@H](O)c2ccc(Cl)cc2CN)[C@@H](O)[C@H]1O [Example 53, (1S,2R,3R,5R)-3-((S)-(2-(aminomethyl)-4-chlorophenyl)(hydroxy)methyl)-5-(4-methyl-7H-pyrrolo[2,3-d]pyrimidin-7-yl)cyclopentane-1,2-diol]
IC50 ([1]; Homo sapiens, A549, 168 h): 0.227 µM | IC50 [2]: 0.006 µM

Cc1ncnc2c1ccn2[C@@H]1C[C@H](Oc2cc(-c3cnoc3)cc3c2CNCC3)[C@@H](O)[C@H]1O [Example 197, (1S,2S,3S,5R)-3-((6-(isoxazol-4-yl)-1,2,3,4-tetrahydroisoquinolin-8-yl)oxy)-5-(4-methyl-7H-pyrrolo[2,3-d]pyrimidin-7-yl)cyclopentane-1,2-diol]
IC50 ([1]; Homo sapiens, A549, 168 h): 3.46 µM | IC50 [2]: 0.001 µM

Cc1ncnc2c1ccn2[C@@H]1C[C@H](Oc2cc(F)cc3c2CNCCO3)[C@@H](O)[C@H]1O [Example 203, (1S,2S,3S,5R)-3-((8-fluoro-2,3,4,5-tetrahydrobenzo[f][1,4]oxazepin-6-yl)oxy)-5-(4-methyl-7H-pyrrolo[2,3-d]pyrimidin-7-yl)cyclopentane-1,2-diol]
IC50 ([1]; Homo sapiens, A549, 168 h): 0.677 µM | IC50 [2]: 0.001 µM

Cc1ncnc2c1ccn2[C@@H]1C[C@H](Oc2cncc3c2CNCC3)[C@@H](O)[C@H]1O [Example 95, (1S,2S,3R,5S)-3-(4-methyl-7H-pyrrolo[2,3-d]pyrimidin-7-yl)-5-((5,6,7,8-tetrahydro-2,6-naphthyridin-4-yl)oxy)cyclopentane-1,2-diol]
IC50 ([1]; Homo sapiens, A549, 168 h): 8.13 µM | IC50 [2]: 0.006 µM

Cc1ncnc2c1ccn2[C@@H]1C[C@H]([C@H](O)c2ccc(Cl)cc2)[C@@H](O)[C@H]1O [Example 11, (1S,2R,3R,5R)-3-[(S)-(4-chlorophenyl)(hydroxy)methyl]-5-(4-methyl-7H-pyrrolo[2,3-d]pyrimidin-7-yl)cyclopentane-1,2-diol]
IC50 ([1]; Homo sapiens, 168 h): 1.39 µM | IC50 [2]: 0.02 µM

Nc1ncnc2c1ccn2[C@@H]1C[C@H](Oc2ccc(F)c3c2CNCC3)[C@@H](O)[C@H]1O [Example 180, (1S,2S,3R,5S)-3-(4-amino-7H-pyrrolo[2,3-d]pyrimidin-7-yl)-5-((5-fluoro-1,2,3,4-tetrahydroisoquinolin-8-yl)oxy)cyclopentane-1,2-diol]
IC50 ([1]; Homo sapiens, A549, 168 h): 0.159 µM | IC50 [2]: 0.003 µM

O[C@@H]1[C@H](O)[C@@H](Oc2cccc3c2CNCC3)C[C@H]1n1ccc2cncnc21 [Example 118, (1S,2S,3R,5S)-3-(7H-pyrrolo[2,3-d]pyrimidin-7-yl)-5-((1,2,3,4-tetrahydroisoquinolin-8-yl)oxy)cyclopentane-1,2-diol]
IC50 ([1]; Homo sapiens, A549, 168 h): 4.84 µM | IC50 [2]: 0.002 µM

Nc1ncnc2c1c(F)cn2[C@@H]1C[C@H](Oc2cc(Cl)c(F)c3c2CNCC3)[C@@H](O)[C@H]1O [Example 108, (1S,2S,3R,5S)-3-(4-amino-5-fluoro-7H-pyrrolo[2,3-d]pyrimidin-7-yl)-5-((6-chloro-5-fluoro-1,2,3,4-tetrahydroisoquinolin-8-yl)oxy)cyclopentane-1,2-diol]
IC50 ([1]; Homo sapiens, A549, 168 h): 0.163 µM | IC50 [2]: 0.001 µM

Cc1ncnc2c1ccn2[C@@H]1C[C@H](Oc2cc(Cl)cc3c2CNCCO3)[C@@H](O)[C@H]1O [Example 204, (1S,2S,3S,5R)-3-((8-chloro-2,3,4,5-tetrahydrobenzo[f][1,4]oxazepin-6-yl)oxy)-5-(4-methyl-7H-pyrrolo[2,3-d]pyrimidin-7-yl)cyclopentane-1,2-diol]
IC50 ([1]; Homo sapiens, A549, 168 h): 0.72 µM | IC50 [2]: 0.002 µM

Cc1ncnc2c1ccn2[C@@H]1C[C@H](Oc2ccc(F)c3c2C(C)NCC3)[C@@H](O)[C@H]1O (single isomer, unassigned) [Example 214]
IC50 [1]: 1.08 µM | IC50 [2]: 0.008 µM

Nc1ncnc2c1c(F)cn2[C@@H]1C[C@H](Oc2ccc(F)c3c2CNCC3)[C@@H](O)[C@H]1O [Example 100, (1S,2S,3R,5S)-3-(4-amino-5-fluoro-7H-pyrrolo[2,3-d]pyrimidin-7-yl)-5-((5-fluoro-1,2,3,4-tetrahydroisoquinolin-8-yl)oxy)cyclopentane-1,2-diol]
IC50 ([1]; Homo sapiens, A549, 168 h): 0.185 µM | IC50 [2]: 0.001 µM

Cc1ncnc2c1ccn2[C@@H]1C[C@H](Oc2cc(Br)cc3c2CNCC3)[C@@H](O)[C@H]1O [Example 89, (1S,2S,3S,5R)-3-((6-bromo-1,2,3,4-tetrahydroisoquinolin-8-yl)oxy)-5-(4-methyl-7H-pyrrolo[2,3-d]pyrimidin-7-yl)cyclopentane-1,2-diol]
IC50 ([1]; Homo sapiens, A549, 168 h): 0.195 µM | IC50 [2]: 0.001 µM

Cc1ncnc2c1c(F)cn2[C@@H]1C[C@H](Oc2cc(Cl)cc3c2CNCC3)[C@@H](O)[C@H]1O [Example 176, (1S,2S,3S,5R)-3-((6-chloro-1,2,3,4-tetrahydroisoquinolin-8-yl)oxy)-5-(5-fluoro-4-methyl-7H-pyrrolo[2,3-d]pyrimidin-7-yl)cyclopentane-1,2-diol]
IC50 ([1]; Homo sapiens, A549, 168 h): 1.56 µM | IC50 [2]: 0.002 µM

Cc1ncnc2c1ccn2[C@@H]1C[C@H](Oc2ccc(Cl)c3c2CNCC3)[C@@H](O)[C@H]1O [Example 86, (1S,2S,3S,5R)-3-((5-chloro-1,2,3,4-tetrahydroisoquinolin-8-yl)oxy)-5-(4-methyl-7H-pyrrolo[2,3-d]pyrimidin-7-yl)cyclopentane-1,2-diol]
IC50 ([1]; Homo sapiens, A549, 168 h): 1.84 µM | IC50 [2]: 0.004 µM

Cc1ncc2c(F)cn([C@@H]3C[C@H](Oc4cc(F)c(F)c5c4CNCC5)[C@@H](O)[C@H]3O)c2n1 [Example 178, (1S,2S,3S,5R)-3-((5,6-difluoro-1,2,3,4-tetrahydroisoquinolin-8-yl)oxy)-5-(5-fluoro-2-methyl-7H-pyrrolo[2,3-d]pyrimidin-7-yl)cyclopentane-1,2-diol]
IC50 ([1]; Homo sapiens, A549, 168 h): 4.06 µM | IC50 [2]: 0.002 µM

Cc1ncnc2c1ccn2[C@@H]1C[C@H](Oc2cc(Cl)c(F)cc2[C@H](C)N)[C@@H](O)[C@H]1O [Example 139, (1S,2S,3S,5R)-3-(2-((S)-1-aminoethyl)-5-chloro-4-fluorophenoxy)-5-(4-methyl-7H-pyrrolo[2,3-d]pyrimidin-7-yl)cyclopentane-1,2-diol]
IC50 ([1]; Homo sapiens, A549, 168 h): 0.637 µM | IC50 [2]: 0.001 µM

Cc1ncnc2c1ccn2[C@@H]1C[C@H](Oc2cc(-c3cn[nH]c3)c(F)c3c2CNCC3)[C@@H](O)[C@H]1O [Example 166, (1S,2S,3S,5R)-3-((5-fluoro-6-(1H-pyrazol-4-yl)-1,2,3,4-tetrahydroisoquinolin-8-yl)oxy)-5-(4-methyl-7H-pyrrolo[2,3-d]pyrimidin-7-yl)cyclopentane-1,2-diol]
IC50 ([1]; Homo sapiens, A549, 168 h): 0.039 µM | IC50 [2]: 0.003 µM

Cc1ncnc2c1ccn2[C@@H]1C[C@H](Oc2cc(F)c(F)cc2CN)[C@@H](O)[C@H]1O [Example 148, (1S,2S,3S,5R)-3-(2-(aminomethyl)-4,5-difluorophenoxy)-5-(4-methyl-7H-pyrrolo[2,3-d]pyrimidin-7-yl)cyclopentane-1,2-diol]
IC50 ([1]; Homo sapiens, A549, 168 h): 4.88 µM | IC50 [2]: 0.002 µM

Cc1ncnc2c1ccn2[C@@H]1C[C@H](Oc2cccc3c2CN[C@@H](C)CO3)[C@@H](O)[C@H]1O [Example 207, (1S,2S,3S,5R)-3-(((S)-3-methyl-2,3,4,5-tetrahydrobenzo[f][1,4]oxazepin-6-yl)oxy)-5-(4-methyl-7H-pyrrolo[2,3-d]pyrimidin-7-yl)cyclopentane-1,2-diol]
IC50 ([1]; Homo sapiens, A549, 168 h): 1.48 µM | IC50 [2]: 0.024 µM
